The values below come from ChEMBL document CHEMBL1129883, “Synthesis and cytotoxicity of 5-deazaflavins containing o- and p-quinone moieties” (Bioorg Med Chem Lett, 1997).

The subject of one experiment is KB. In words: In vitro cytotoxicity determined against human epidermoid carcinoma KB cells by MTT assay. It counts as functional, cell-based.
Another experiment concerns L1210. As to the kind of experiment: In vitro cytotoxicity determined against murine leukemia L1210 cells by MTT assay. Particulars: Mus musculus. It counts as functional, cell-based.

Turning to `CCCCn1c2nc(=O)n(C)c(=O)c-2cc2c1C(=O)C(OC)=CC2=O`, the IC50 in the experiment on KB was determined as 900 nM; in the experiment on L1210 it was 1200 nM.
The like results for `CCCCCCCCCCCCn1c2nc(=O)n(-c3ccccc3)c(=O)c-2cc2c1C(=O)C(=O)c1ccccc1-2` were, in that order, 17900 nM and 2800 nM.
On to `CCCCn1c2nc(=O)n(C)c(=O)c-2cc2c1C(=O)C(=O)c1ccccc1-2`, for which the IC50 in the experiment on KB stood at 200 nM; in the experiment with L1210, 400 nM.
Regarding `CCCCCCCCn1c2nc(=O)n(C)c(=O)c-2cc2c1C(=O)C(OC)=CC2=O`, the values for the IC50 with KB and with L1210 were 5800 nM and 400 nM, respectively.
As to `CCCCCCCCn1c2nc(=O)n(C)c(=O)c-2cc2c1C(=O)C(=O)c1ccccc1-2`, the IC50 was determined as 1700 nM in the experiment on KB and 400 nM in the experiment on L1210.
The like results for `CCCCCCCCCCCCn1c2nc(=O)n(C)c(=O)c-2cc2c1C(=O)C(=O)c1ccccc1-2` were, in that order, 200 nM and 300 nM.
The like results for `CCCCCCCCn1c2nc(=O)[nH]c(=O)c-2cc2c1C(=O)C(=O)c1ccccc1-2` were, in that order, 3200 nM and 4200 nM.
As to `CCCCCCCCn1c2nc(=O)n(-c3ccccc3)c(=O)c-2cc2c1C(=O)C(OC)=CC2=O`, the figures for the IC50 with KB and in the experiment on L1210 were 1000 nM and 1800 nM, respectively.
The like results for `CCCCCCCCCCCCn1c2nc(=O)n(C)c(=O)c-2cc2c1C(=O)C(OC)=CC2=O` were, in that order, 1800 nM and 100 nM.
On to `CCCCCCCCn1c2nc(=O)[nH]c(=O)c-2cc2c1C(=O)C(OC)=CC2=O`, for which the figures for the IC50 in the experiment with KB and in the experiment on L1210 were 1500 nM and 4400 nM, respectively.
Turning to `CCCCCCCCCCCCn1c2nc(=O)[nH]c(=O)c-2cc2c1C(=O)C(=O)c1ccccc1-2`, the IC50 in the experiment with KB stood at 6900 nM; in the experiment on L1210 it was 3000 nM.
The like results for `CCCCCCn1c2nc(=O)n(C)c(=O)c-2cc2c1C(=O)C(OC)=CC2=O` were, in that order, 600 nM and 500 nM.
Regarding `CCCCCCn1c2nc(=O)[nH]c(=O)c-2cc2c1C(=O)C(OC)=CC2=O`, the IC50 in the experiment with KB worked out at 4500 nM; in the experiment with L1210 it was 4800 nM.
The like results for `CCCCCCCCn1c2nc(=O)n(-c3ccccc3)c(=O)c-2cc2c1C(=O)C(=O)c1ccccc1-2` were, in that order, 22900 nM and 3100 nM.
The like results for `CCCn1c2nc(=O)n(C)c(=O)c-2cc2c1C(=O)C(=O)c1ccccc1-2` were, in that order, 1200 nM and 700 nM.
The like results for `CCCCCCn1c2nc(=O)n(C)c(=O)c-2cc2c1C(=O)C(=O)c1ccccc1-2` were, in that order, 800 nM and 100 nM.
Consider `CCCCn1c2nc(=O)n(-c3ccccc3)c(=O)c-2cc2c1C(=O)C(=O)c1ccccc1-2`, for which the IC50 with KB is 28200 nM; in the experiment with L1210 it was 4900 nM.
The like results for `CCn1c2nc(=O)n(C)c(=O)c-2cc2c3ccccc3cc(OC)c21` were, in that order, greater than 50000 nM and greater than 50000 nM.
The like results for `CCCCn1c2nc(=O)[nH]c(=O)c-2cc2c1C(=O)C(=O)c1ccccc1-2` were, in that order, 5200 nM and 2100 nM.
The like results for `CCCCCCn1c2nc(=O)n(-c3ccccc3)c(=O)c-2cc2c1C(=O)C(OC)=CC2=O` were, in that order, 400 nM and 1300 nM.
As to `CCn1c2nc(=O)n(C)c(=O)c-2cc2c1C(=O)C(=O)c1ccccc1-2`, the values for the IC50 with KB and with L1210 were 300 nM and 100 nM, respectively.
Turning to `CCCCCCCCCCCCn1c2nc(=O)n(-c3ccccc3)c(=O)c-2cc2c1C(=O)C(OC)=CC2=O`, the IC50 was determined as 300 nM in the experiment with KB and 2700 nM in the experiment on L1210.
`CCCCCCCCCCCCn1c2nc(=O)[nH]c(=O)c-2cc2c1C(=O)C(OC)=CC2=O`: the IC50 was 12700 nM in the experiment with KB and 2500 nM in the experiment with L1210.
On to `CCCCCCCCCCCCn1c2nc(=O)n(C)c(=O)c-2cc2ccccc21`, for which the IC50 in the experiment on KB and in the experiment with L1210 was greater than 50000 nM each time.
